Test results from patent US7923443B2, “Pharmaceutical composition for the treatment of bone fracture” (Dong Wha Pharmaceutical Co., Ltd., priority 2004, dated 2011).
Marks after values point to notes of the source that are not given here.

What was measured:
Assay type in all cases: in vivo, S.D. rats
rib fracture = experiment: Effect of promoting fracture healing in rib fracture-induced rat model (overall); details: compared with the results for N-hydroxy benzamidine compound above
Description: (§1) The benzamidine compound of Chemical Formula 1 was assayed for therapeutic effect on bone fracture in rat models subjected to rib fracture. Starting from 2 days after the induction of rib fracture, the administration of the benzamidine compound was continued for one, two, three and four weeks. Changes in (body weight, body weight gain, volume of bony callus, bone density, bone strength, and bone histopathology were observed.
(§2) A total of 80 S.D. rats (10-week-old, BioGenomics, Korea) was adapted to a laboratory environment for 12 days before being used in experiments. While being housed at a density of two or three to a plastic cage, the experimental animals were kept in a breeding room under controlled temperature (20 to 25° C.) and humidity (30 to 35%). Under light-dark cycles of 12 hours, the rats were allowed to have free access to feedstuff and tap water.
(§3) 10 mg and 50 mg of N-hydroxy-4-{5-[4-(5-isopropyl-2-methyl-1,3-thiazol-4-yl)phenoxy]pentoxy}benzamidine were completely dissolved in 5 ml of sterilized distilled water. The benzamidine compound in the solutions was orally administered at doses of 10 mg and 50 mg per kg of body weight once a day for one, two, three and four weeks from day 2 of the surgery. […]

bony callus [1] = experiment: Histopathological observation of 8th rib (FIG. 1); details: all administration time periods; versus non-treated group; dose-dependent
Description: FIG. 1 an optical microphotograph showing sliced tissue specimens of the 8th rib extracted after fracture induction, stained with Masson's trichrome.
as §1, §2, §3

[2] = system: osteoclasts in the bony callus; experiment: Number of osteoclasts in the bony callus, 8th rib
Description: as §1, §2
(§4) 10 mg and 50 mg of N-hydroxy-4-{5-[4-(5-isopropyl-2-methyl-1,3-thiazol-4-yl)phenoxy]pentoxy}benzamidine were completely dissolved in 5 ml of sterilized distilled water. The benzamidine compound in the solutions was orally administered at doses of 10 mg and 50 mg per kg of body weight once a day for one, two, three and four weeks from day 2 of the surgery.
(§5) All the experimental animals were anesthetized with ketamine hydrochloride and xylazine hydrochloride and underwent an operation for inducing a fracture on the 8th and the 9th rib. In this regard, the ribs were transversely cut with operation scissors. After the fracture induction, the fractured ribs were assembled to be aligned with each other and the wound cavity was closed through skin suture.
(§6) The 8th rib enucleated after the fracture induction was fixed in 10% neutral formalin, followed by decalcification by changing a decalcification solution (2.24% formic acid, 0.5N […]) with fresh solution once a day for five days. After completion of the decalcification, the rib was embedded in paraffin. The paraffin-embedded tissue was sliced at a thickness of 3 to 4 μm, stained with hematoxylin-eosin or Masson's trichrome and observed through an optical microscope.
Furthermore, the number of osteoclasts in the bony callus, particularly, within an area of (200 μm)^2 on the fracture surface at which endochondral ossification commenced, was measured using an Analysis Image processing system (SIS Germany).

bony callus [3] = experiment: Histomorphometry of bony callus (connective, cartilage, bone tissue content), 8th rib
Description: as §1, §2, §4, §5, §6
From the rib tissue specimen prepared above, the amounts of the connective tissue, cartilage and bone tissue in the bony callus were examined using an Analysis Image processing system (SIS Germany) and are represented as percentages in Tables 3 to 5, below.

[4] = Body weight gain in rib fracture-induced rat model
Description: as §1, §2, §4, §5
All the experimental animals were measured for body weight one day before the operation, the day of the operation, the day of administration, and 7, 14, 21 and 28 days after administration. In order to reduce the difference among individuals due to feedstuff intake, all experimental animals were starved for 18 hours or more on the day of the measurement. Also, to minimize the difference of change in body weight of individual animals, body weight gain during time periods from the day of the operation to 7, 14, 21 and 28 days after the administration were calculated.

[5] = system: bony callus formed around the fractured 8th and 9th ribs; experiment: Volume of bony callus in rib fracture-induced rat model
Description: as §1, §2, §4, §5
On the sacrificial day, the bony callus formed around the fractured 8th and 9th ribs was separated from adjacent tissues and taken out of all experimental animals. The enucleated bony calluses were measured for long and short diameters in millimeters. The volume of the bony callus was calculated from the measurements using the following mathematic formula 1. Volume of Bony callus=½×(a×b^2) Formula 1
a: long diameter of bony callus,
b: short diameter of bony callus.

bony callus [6] = experiment: Bone density of bony callus (DEXA), 9th rib
Description: as §1, §2, §4, §5
The 9th rib enucleated after the fracture induction was measured for the bone density around the bony callus using dual-energy x-ray absorptiometry (DEXA, PXImus; Lunar Medison, Wis.) and the bone density is calculated in mg/cm^2 in Table 7.

bony callus [7] = experiment: Bone strength of bony callus (three point bending test), 9th rib
Description: as §1, §2, §4, §5
The bone strength around the fracture face at which a bony callus was formed in the 9th rib enucleated after the fracture induction was determined from three point bending tests using an Instron material testing system (Instron 6022; Instron, USA; speed 20 mm/min).

[8] = 10 mg/kg oral once a day, 7 days after administration
[9] = 10 mg/kg oral once a day, 14 days after administration
[10] = 10 mg/kg oral once a day, 21 days after administration
[11] = 10 mg/kg oral once a day, 28 days after administration
[12] = 50 mg/kg oral once a day, 7 days after administration
[13] = 50 mg/kg oral once a day, 14 days after administration
[14] = 50 mg/kg oral once a day, 21 days after administration
[15] = 50 mg/kg oral once a day, 28 days after administration

Cc1nc(-c2ccc(OCCCCCOc3ccc(C(=N)N)cc3)cc2)c(C(C)C)s1 [4-{5-[4-(5-isopropyl-2-methyl-1,3-thiazol-4-yl)phenoxy]pentoxy}benzamidine]
Healing effects on bone fracture (rib fracture): same healing effects as above

Cc1nc(-c2ccc(OCCCCCOc3ccc(C(=N)NO)cc3)cc2)c(C(C)C)s1 [Cpd. Of Chemical Formula 1, N-hydroxy-4-{5-[4-(5-isopropyl-2-methyl-1,3-thiazol-4-yl)phenoxy]pentoxy}benzamidine]
Bone tissue in bony callus, histopathological observation (FIG. 1) (bony callus [1]): increased bone tissue in bony callus in all administration time periods
Changes in Population of Osteoclasts within Bony Callus [2, 8]: 43.80 ± 3.83 Counts present within (200 μm)^2 of bony callus
Changes in Population of Osteoclasts within Bony Callus [2, 9]: 50.60 ± 2.70 Counts present within (200 μm)^2 of bony callus
Changes in Population of Osteoclasts within Bony Callus [2, 10]: 31.00 ± 6.67 Counts present within (200 μm)^2 of bony callus
Changes in Population of Osteoclasts within Bony Callus [2, 11]: 21.60 ± 3.58 Counts present within (200 μm)^2 of bony callus
Changes in Population of Osteoclasts within Bony Callus [2, 12]: 42.60 ± 4.62 Counts present within (200 μm)^2 of bony callus
Changes in Population of Osteoclasts within Bony Callus [2, 13]: 53.60 ± 2.41 Counts present within (200 μm)^2 of bony callus
Changes in Population of Osteoclasts within Bony Callus [2, 14]: 22.20 ± 3.03 Counts present within (200 μm)^2 of bony callus
Changes in Population of Osteoclasts within Bony Callus [2, 15]: 17.60 ± 2.97 Counts present within (200 μm)^2 of bony callus
Changes in Content of Bone Tissue in Bony Callus (bony callus [3]; [8]): 37.95 ± 6.44 % relative to total bony callus
Changes in Content of Cartilage Tissue in Bony Callus (bony callus [3]; [8]): 24.79 ± 5.43 % relative to total bony callus
Changes in Content of Connective Tissue of Bony Callus (bony callus [3]; [8]): 33.19 ± 3.06 % relative to total bony callus
Changes in Content of Bone Tissue in Bony Callus (bony callus [3]; [9]): 54.31 ± 9.50 % relative to total bony callus
Changes in Content of Cartilage Tissue in Bony Callus (bony callus [3]; [9]): 23.77 ± 3.44 % relative to total bony callus
Changes in Content of Connective Tissue of Bony Callus (bony callus [3]; [9]): 6.28 ± 0.72 % relative to total bony callus
Changes in Content of Bone Tissue in Bony Callus (bony callus [3]; [10]): 66.71 ± 5.41 % relative to total bony callus
Changes in Content of Cartilage Tissue in Bony Callus (bony callus [3]; [10]): 18.51 ± 2.29 % relative to total bony callus
Changes in Content of Connective Tissue of Bony Callus (bony callus [3]; [10]): 5.55 ± 1.42 % relative to total bony callus
Changes in Content of Bone Tissue in Bony Callus (bony callus [3]; [11]): 83.30 ± 4.43 % relative to total bony callus
Changes in Content of Cartilage Tissue in Bony Callus (bony callus [3]; [11]): 6.59 ± 2.02 % relative to total bony callus
Changes in Content of Connective Tissue of Bony Callus (bony callus [3]; [11]): 3.20 ± 0.89 % relative to total bony callus
Changes in Content of Bone Tissue in Bony Callus (bony callus [3]; [12]): 39.24 ± 14.12 % relative to total bony callus
Changes in Content of Cartilage Tissue in Bony Callus (bony callus [3]; [12]): 22.42 ± 5.45 % relative to total bony callus
Changes in Content of Connective Tissue of Bony Callus (bony callus [3]; [12]): 29.51 ± 5.70 % relative to total bony callus
Changes in Content of Bone Tissue in Bony Callus (bony callus [3]; [13]): 55.94 ± 8.38 % relative to total bony callus
Changes in Content of Cartilage Tissue in Bony Callus (bony callus [3]; [13]): 20.09 ± 6.38 % relative to total bony callus
Changes in Content of Connective Tissue of Bony Callus (bony callus [3]; [13]): 6.06 ± 0.44 % relative to total bony callus
Changes in Content of Bone Tissue in Bony Callus (bony callus [3]; [14]): 74.07 ± 8.43 % relative to total bony callus
Changes in Content of Cartilage Tissue in Bony Callus (bony callus [3]; [14]): 11.49 ± 2.31 % relative to total bony callus
Changes in Content of Connective Tissue of Bony Callus (bony callus [3]; [14]): 3.58 ± 0.62 % relative to total bony callus
Changes in Content of Bone Tissue in Bony Callus (bony callus [3]; [15]): 87.27 ± 8.97 % relative to total bony callus
Changes in Content of Cartilage Tissue in Bony Callus (bony callus [3]; [15]): 5.37 ± 1.38 % relative to total bony callus
Changes in Content of Connective Tissue of Bony Callus (bony callus [3]; [15]): 2.59 ± 0.52 % relative to total bony callus
Changes in Body Weight Gain [4, 8]: 16.00 ± 13.55 g
Changes in Body Weight Gain [4, 9]: 44.40 ± 14.54 g
Changes in Body Weight Gain [4, 10]: 46.40 ± 22.39 g
Changes in Body Weight Gain [4, 11]: 61.20 ± 22.81 g
Changes in Body Weight Gain [4, 12]: 14.80 ± 08.81 g
Changes in Body Weight Gain [4, 13]: 36.82 ± 29.52 g
Changes in Body Weight Gain [4, 14]: 68.60 ± 16.65 g
Changes in Body Weight Gain [4, 15]: 84.40 ± 23.37 g
Changes in Bony Callus Volume [5, 8]: 12.84 ± 4.42* mm^3
Changes in Bony Callus Volume [5, 9]: 5.47 ± 1.81* mm^3
Changes in Bony Callus Volume [5, 10]: 4.73 ± 2.13* mm^3
Changes in Bony Callus Volume [5, 11]: 3.96 ± 2.41* mm^3
Changes in Bony Callus Volume [5, 12]: 8.62 ± 3.43* mm^3
Changes in Bony Callus Volume [5, 13]: 4.36 ± 1.44* mm^3
Changes in Bony Callus Volume [5, 14]: 3.84 ± 1.86* mm^3
Changes in Bony Callus Volume [5, 15]: 3.37 ± 0.79* mm^3
Changes in Bone Density of Bony Callus (bony callus [6]; [8]): 0.24 ± 0.04 mg/cm^2
Changes in Bone Density of Bony Callus (bony callus [6]; [9]): 0.32 ± 0.04 mg/cm^2
Changes in Bone Density of Bony Callus (bony callus [6]; [10]): 0.39 ± 0.04 mg/cm^2
Changes in Bone Density of Bony Callus (bony callus [6]; [11]): 0.55 ± 0.06 mg/cm^2
Changes in Bone Density of Bony Callus (bony callus [6]; [12]): 0.24 ± 0.03 mg/cm^2
Changes in Bone Density of Bony Callus (bony callus [6]; [13]): 0.32 ± 0.04 mg/cm^2
Changes in Bone Density of Bony Callus (bony callus [6]; [14]): 0.44 ± 0.07 mg/cm^2
Changes in Bone Density of Bony Callus (bony callus [6]; [15]): 0.57 ± 0.04 mg/cm^2
Changes in bone strength of bony callus (bony callus [7]; [8]): 2.15 ± 0.42 Nos. of Impact applied
Changes in bone strength of bony callus (bony callus [7]; [9]): 2.57 ± 0.65 Nos. of Impact applied
Changes in bone strength of bony callus (bony callus [7]; [10]): 3.10 ± 0.40 Nos. of Impact applied
Changes in bone strength of bony callus (bony callus [7]; [11]): 3.26 ± 0.43 Nos. of Impact applied
Changes in bone strength of bony callus (bony callus [7]; [12]): 2.35 ± 0.47 Nos. of Impact applied
Changes in bone strength of bony callus (bony callus [7]; [13]): 2.84 ± 0.34 Nos. of Impact applied
Changes in bone strength of bony callus (bony callus [7]; [14]): 3.23 ± 0.35 Nos. of Impact applied
Changes in bone strength of bony callus (bony callus [7]; [15]): 3.35 ± 0.38 Nos. of Impact applied

Cc1nc(-c2ccc(OCCCCCOc3ccc(C(=N)NO)cc3)cc2)c(C(C)C)s1 [N-hydroxy-4-{5-[4-(5-isopropyl-2-methyl-1,3-thiazol-4-yl)phenoxy]pentoxy}benzamidine]
Healing effects on bone fracture (rib fracture): same healing effects as above
